According to patent publication US20260256716A1, “COMPOSITIONS AND METHODS OF USE THEREOF” (Board of Supervisors of Louisiana State University and …, priority 2023, published 2026):

Experiments:
[1] = test system: NAD synthesis and salvage; assay: RT-PCR of NAD synthesis and salvage pathways / NAD levels; assay type: cell-based
[2] = test system: SIRT1 and 3; assay: Western analysis of Sirtuin (SIRT) 1 and 3 expression; assay type: cell-based; conditions: varying concentrations, increased as concentrations decreased to nM
Text: Sirtuins utilize NAD to suppress pathophysiological processes of aging, including diabetic retinopathies, AMD and Neurodegeneration. Representative western analysis of Sirtuin (SIRT) 1 and 3 expression following cellular treatment with the representative 5-HT2A Receptor agonist R-DOI at varying concentrations.

[3] = test system: ARPE cells; assay: Mitochondrial morphology by fluorescent microscopy in ARPE cells expressing mitochondrial red/green fluorescent protein; assay type: cell-based, human; conditions: 100 nM, 50 nM or 10 nM; 48 hours post treatment
Experimental: Representative 5-HT2A Receptor Agonist, R-DOI, Increases Mitochondrial Biogenesis and Quality by Inducing Mitochondrial Fusion at low nM concentrations thereby reversing adverse processes that underlie development and progression of the Pathophysiology of Age-Associated Ocular and Neurodegenerative Diseases. ARPE cells transfected with plasmids that express either a red or green fluorescent protein biomarker that marks mitochondria were plated and treated with R-DOI @100 nM, 50 nM or 10 nM. 48 hours post treatment, mitochondrial morphology was evaluated by fluorescent microscopy.
• Fluorescent dyes limit researchers to study in a static manor due to fixation. We engineered a plasmid expressing mitochondrial localized AcGFP1/dsRed2. […]

[4] = test system: A549 cells; assay: Cell viability after cumene peroxide oxidative stress (Hoechst / propidium iodide); assay type: cell-based
Experimental: A549 cells were treated with the indicated concentrations of R-DOI (panel A) or 2C-iBu (panel B) and subsequently exposed to cumene peroxide to oxidatively stress cells. Cell viability was visualized by staining with Hoescht (Blue) to mark total cells (live plus dead) and propidium iodide (red) to mark dead cells.

[5] = test system: ARPE cells; assay: Blue light induced mitochondrial oxidative stress in ARPE cells (Mitosox); assay type: cell-based, human; conditions: 0.001 nM; 24 hours; hyperglycemic conditions; blue light 400 nm 12 seconds
Experimental: Representative 5-HT2A Receptor Agonist, R-DOI Inhibits Blue Light Induced Mitochondrial-Mediated Oxidative Stress at low sub-nanomolar concentrations thereby reversing adverse processes that are associated with retinal exposure to blue light. ARPE cells grown under hyperglycemic conditions were plated and mock treated or treated with R-DOI at 0.001 nM. 24 hours post treatment, live ARPE cells were labeled with the mitochondrial oxidative stress indicator dye Mitosox that becomes fluorescent red under mitochondria-induced oxidative stress conditions. Once stained, live ARPE cells were exposed to focused blue light at 400 nm for 12 seconds and the ability of drugs to protect against blue light damage-induced mitochondrial oxidative stress induction was assessed. In the absence of 5HT2A agonists, there was a clear increase in red fluorescence upon blue light exposure.

[6] = test system: AMP kinase; assay: AMP kinase activation in treated cells; assay type: cell-based; conditions: low nM concentrations
[7] = test system: ARPE cells; assay: Blue light induced mitochondrial fragmentation in ARPE cells (mitotracker green); assay type: cell-based, human; conditions: 100 nM; 48 hours; hyperglycemic conditions; blue light 400 nm
Experimental: ARPE cells grown under hyperglycemic conditions were plated and mock treated or treated with R-DOI or 2C-iBu at 100 nM. 48 hours post treatment, mitochondria in live cells were visualized by staining mitochondria with mitotracker green (green). Once stained, live ARPE cells were exposed to focused blue light at 400 nm and the ability of drugs to protect against blue light damage-induced mitochondrial fragmentation was assessed.

[8] = test system: intracellular H2O2; assay: Intracellular H2O2 (ROS-Glo bioluminescence) in ARPE-19 cells at diabetic glucose concentrations; assay type: cell-based, human; conditions: 10 nM; glucose 5, 10, 20, 30 mM; 72 hours
Experimental: Hyperglycemic conditions induce increased disease promoting ROS production that is abrogated by low nM concentrations of the Representative 5-HT2A Receptor Agonist. R-DOI Returning to Base-line Homeostatic Levels. ARPE-19 cells were plated using physiological media (HPLM; 7% FCS) overnight prior to starvation (HPLM 0.5% FCS) overnight with or without 10 nM R-DOI. Cells were then replaced with HPLM 7% FCS containing a range of glucose concentrations spanning diabetic blood glucose levels (5 mM, 10 mM, 20 mM, and 30 mM) with or without the addition of 10 nM R-DOI for 72-hours. Cells were then lysed to quantify intracellular H2O2 levels via bioluminescence as described above. Low dose 5-HT2A agonists abrogate the hyperglycemic induced induction od ROS that is pathophysiological for development and progression of neurodegenerative and ocular age-related diseases, especially within diabetic patients, or patients that have conditions that induce increased levels of blood glucose. Pathological glucose concentrations increase intracellular H2O2. 5-HT2AR agonism alleviates glucose-induced intracellular H2O2 at diabetic glucose concentrations.
Evaluating intracellular reactive oxygen species (ROS) levels (FIG. 67). Promega's ROS-Glo H2O2 assay enables researchers to evaluate intracellular ROS levels. […]

[9] = test system: ARPE-19 cells; assay: ATP luciferase assay in ARPE-19 cells; assay type: cell-based, human
[10] = test system: ARPE cells; assay: Mitochondrial biomass and potential (MitoTracker staining / flow cytometry) in ARPE cells; assay type: cell-based, human; conditions: 10 fold dilutions 100 nM to 0.001 nM; 48 hours
Experimental: Representative 5-HT2A Receptor Agonist, R-DOI, Increases Mitochondrial Biogenesis and Function at low nM to sub nanomolar concentrations thereby reversing adverse processes that underlie development and progression of the Pathophysiology of Age-Associated Ocular and Neurodegenerative Diseases. ARPE cells were plated and treated with 10 fold dilutions of R-DOI from 100 nM to 0.001 nM. 48 hours post treatment, mitochondrial biomass was assessed either by staining for mitochondria using mitotracker (green, left panel) or via flow cytometry using MitoTracker Red CMOXROS that assesses both mitochondrial biomass and mitochondrial potential.

COc1cc(C[C@@H](C)N)c(OC)cc1I (single isomer, unassigned) [R-DOI, R enantiomer 2,5-Dimethoxy-4-iodoamphetamine]
NAD levels / NAD synthesis and salvage pathways ([1]; higher doses): causes downregulation of these pathways and decreased NAD levels | NAD levels / NAD synthesis and salvage pathways ([1]; low dose): increases protective NAD levels | SIRT1 and 3 expression [2]: induced | SIRT1 and 3 expression ([2]; listed as (R)-DOI): upregulates SIRT1 | mitochondrial biomass and morphology [3]: increased mitochondrial biomass with a non-fragmented fused morphology | oxidative stress-induced cell death [4]: protected cells from oxidative stress-induced cell death | blue light induced mitochondrial oxidative stress [5]: abrogated mitochondrial oxidative stress responses | AMP kinase activation [6]: activation of AMP kinase | blue light induced mitochondrial fragmentation/damage [7]: Inhibit Blue Light and Oxidative Stress Induced Mitochondrial Fragmentation/Damage | hyperglycemia induced ROS production (intracellular H2O2) [8]: abrogated | ATP levels relative to Mock treated ARPE-19 cells ([9]; 10 fold dilutions 100 nM to 0.1 nM): Increase Mitochondrial Function And ATP Production | production of ATP ([9]; ARPE WT cells, 24 h after administration): enhanced production of ATP | mitochondrial biomass and mitochondrial potential [10]: increased both mitochondrial biomass and potential
